Reference: patent US11166460B2, “α-amino acrylate microbicide, and preparation method therefor and uses thereof” (priority 2017, dated 2021)
≈ marks a conversion by molar mass, not a printed value. Read-outs that look alike come from different tables or passages of the source.

Tests used:
[1] = system: tobacco mosaic virus (TMV); test: Anti-TMV curative activity (treatment mode), live friction inoculation on tobacco seedlings; type: in vivo; settings: Tobacco mosaic virus, read-out: Anti-TMV activity, Curative effect (inhibition), 100 μg/mL, tobacco seedlings, checked on seventh day
[2] = system: tobacco mosaic virus (TMV); test: Anti-TMV inactivation activity (inactivation mode), compound mixed with TMV before inoculation of tobacco leaves; type: in vivo; settings: Tobacco mosaic virus, read-out: Anti-TMV activity, Inactivation effect (inhibition)
[3] = system: tobacco mosaic virus (TMV); test: Anti-TMV protective activity (protection mode), live friction inoculation on tobacco seedlings; type: in vivo; settings: Tobacco mosaic virus, read-out: Anti-TMV activity, Protection effect (inhibition)
[4] = system: tobacco mosaic virus (TMV); test: Anti-TMV inducing activity (induction mode), tobacco seedlings; type: in vivo; settings: Tobacco mosaic virus, read-out: Anti-TMV activity, Induction effect (inhibition), 100 μg/mL, tobacco seedlings
Alternaria solani = test: Fungicidal activity, fungi growth rate method, AS; type: cell-based; settings: Alternaria solani, 50 μg/mL
Botrytis cinerea = test: Fungicidal activity, fungi growth rate method, BC; type: cell-based; settings: Botrytis cinerea, 50 μg/mL
Cercospora arachidicola = test: Fungicidal activity, fungi growth rate method, CA; type: cell-based; settings: Mycosphaerella arachidis, 50 μg/mL
wheat Gibberella zeae = test: microbe, parasite or virus in culture; type: cell-based; settings: Fusarium graminearum
[5] = system: Phytophthora infestans (Mont) de Bary; test: microbe, parasite or virus in culture; type: cell-based; settings: Phytophthora infestans
Physalospora piricola = test: Fungicidal activity, fungi growth rate method, PP; type: cell-based; settings: 50 μg/mL
Pellicularia sasakii = test: Fungicidal activity, fungi growth rate method, PS; type: cell-based; settings: 50 μg/mL
Rhizoctonia cerealis = test: Fungicidal activity, fungi growth rate method, RC; type: cell-based; settings: Ceratobasidium cereale, 50 μg/mL
Sclerotinia sclerotiorum = test: microbe, parasite or virus in culture; type: cell-based; settings: Sclerotinia sclerotiorum; for EC90: read-out: EC90 against S. sclerotiorum in vitro; for inhibition at 50 µg/mL: 50 μg/mL
[6] = read-out: Fungicidal activity (inhibition) against AS: Alternaria solani
[7] = read-out: Fungicidal activity, inhibition, AS
[8] = read-out: Fungicidal activity, inhibition, BC
[9] = read-out: Fungicidal activity (inhibition) against CA: Cercospora arachidicola
[10] = read-out: Fungicidal activity, inhibition, CA
[11] = read-out: Fungicidal activity, inhibition, GZ
[12] = read-out: Fungicidal activity (inhibition) against PI: Phytophthora infestans (Mont) de Bary
[13] = read-out: Fungicidal activity, inhibition, PI
[14] = read-out: Fungicidal activity (inhibition) against PP: Physalospora piricola
[15] = read-out: Fungicidal activity, inhibition, PP
[16] = read-out: Fungicidal activity (inhibition) against PS: Pellicularia sasakii
[17] = read-out: Fungicidal activity, inhibition, PS
[18] = read-out: Fungicidal activity (inhibition) against RC: Rhizoctonia cerealis
[19] = read-out: Fungicidal activity, inhibition, RC
[20] = read-out: Fungicidal activity, inhibition, SS
[21] = read-out: Fungicidal activity (inhibition) against SS: Sclerotinia sclerotiorum

SMILES | inhibition at 100 µg/mL [1] [%] | inhibition at 100 µg/mL [2] [%] | inhibition at 100 µg/mL [3] [%] | inhibition at 100 µg/mL [4] [%] | inhibition at 50 µg/mL (Alternaria solani; [7]) [%] | inhibition at 50 µg/mL (Botrytis cinerea; [8]) [%] | inhibition at 50 µg/mL (Cercospora arachidicola; [10]) [%] | inhibition at 50 µg/mL (wheat Gibberella zeae; [11]) [%] | inhibition at 50 µg/mL [5, 12] [%] | inhibition at 50 µg/mL [5, 13] [%] | inhibition at 50 µg/mL (Physalospora piricola; [15]) [%] | inhibition at 50 µg/mL (Pellicularia sasakii; [17]) [%] | inhibition at 50 µg/mL (Rhizoctonia cerealis; [18]) [%] | inhibition at 50 µg/mL (Rhizoctonia cerealis; [19]) [%] | inhibition at 50 µg/mL (Sclerotinia sclerotiorum; [20]) [%] | melting point [°C] | other results
CONC(=O)/C(=C/c1csc(C2CCN(C(=O)OC(C)(C)C)CC2)n1)NC(=O)c1ccccc1 [Compound 42, (Z)-N-[1-[(methoxylamino)carbonyl]-2-[4-[2-[4-(1-Boc-piperidine)]thiazol]]ethenyl]benzamide] | 0 | 0 | 41 | 20 | 63 | 53 | 44 | 42 | 44 | 44 | 44 | 43 | 45 | 45 | 93 | 111 to 113 | inhibition at 50 µg/mL (Alternaria solani; [6]): 63%; inhibition at 50 µg/mL (Botrytis cinerea; read-out: Fungicidal activity (inhibition) against BC: Botrytis cinerea): 53%; inhibition at 50 µg/mL (Cercospora arachidicola; [9]): 44%; inhibition at 50 µg/mL (Physalospora piricola; [14]): 44%; inhibition at 50 µg/mL (Pellicularia sasakii; [16]): 43%; EC90 (Sclerotinia sclerotiorum): 155 µg/mL (≈ 318 µM)
CC(C)(C)OC(=O)N1CCC(c2nc(/C=C(\NC(=O)c3ccccc3)C(=O)NCC(F)F)cs2)CC1 [Compound 43, (Z)-N-[1-[(2,2-difluoroethylamino)carbonyl]-2-[4-[2-[4-(1-Boc-piperidine)]thiazol]]ethenyl]benzamide] | 30 | 27 | 2 | 31 | 43 | 40 | 32 | 36 | 38 | 38 | 40 | 39 | 38 | 38 | 96 | 164 to 165 | EC90 (Sclerotinia sclerotiorum): 154 µg/mL (≈ 295 µM)
O=C(N/C(=C\c1ccccc1)C(=O)N1CCC(O)CC1)c1ccccc1 [Compound 45, (Z)-N-[1-[(4-hydroxy-1-piperidinyl)carbonyl]-2-phenylethenyl]benzamide] | 30 | 22 | 54 | 52 | 25 | 12 | 6 | 43 | < 25 | 24 | 6 | 3 | < 20 | 13 | 38 | 115 to 117 | inhibition at 50 µg/mL (Alternaria solani; [6]): < 30%; inhibition at 50 µg/mL (Cercospora arachidicola; [9]): < 25%; inhibition at 50 µg/mL (wheat Gibberella zeae; read-out: Fungicidal activity (inhibition) against GZ: wheat Gibberella zeae): < 45%; inhibition at 50 µg/mL (Physalospora piricola; [14]): < 20%; inhibition at 50 µg/mL (Pellicularia sasakii; [16]): < 30%; inhibition at 50 µg/mL (Sclerotinia sclerotiorum; [21]): 38%
O=C(NCc1ccc(Br)cc1)/C(=C/c1ccccc1)NC(=O)c1ccccc1 [Compound 46, N-[(1Z)-2-phenyl-1-[[(4-bromophenylmethyl)amino]carbonyl]ethenyl]benzamide] | 33 | 64 | 41 | 44 | 7 | 9 | 18 | 43 |  | 11 | 12 | 2 |  | 13 | 34 | 192 to 194 | 
CC(C)(C)OC(=O)N1CCC(c2nc(/C=C(\NC(=O)c3ccccc3)C(=O)NCc3ccc(Br)cc3)cs2)CC1 [Compound 47, N-[(1Z)-2-[4-[2-[4-(1-Boc-piperidine)]thiazol]]-1-[[(4-bromophenylmethyl)amino]carbonyl]ethenyl]benzamide] | 56 | 0 | 41 | 53 | 36 | 32 | 22 | 22 |  | 20 | 22 | 19 |  | 21 | 82 | 101 to 103 | inhibition at 50 µg/mL (Sclerotinia sclerotiorum; [21]): 80 to 95%
O=C(NC(Cc1ccccc1)C(=O)N1CCC(c2ccccc2)CC1)c1ccccc1 (stereo not drawn) [Compound 48, N-[1-[[4-(4-phenyl)-1-piperidinyl]carbonyl]-2-phenylethyl]benzamide] | 25 | 32 | 2 | 27 | 18 | 17 | 9 | 11 |  | 23 | 14 | 17 |  | 11 | 64 | 143 to 144 | 
O=C(NC(Cc1ccccc1)C(=O)N1CCC(O)(c2ccc(Br)cc2)CC1)C1CC1 (stereo not drawn) [Compound 49, N-[1-[[4-(4-bromophenyl)-4-hydroxy-1-piperidinyl]carbonyl]-2-phenylethyl]cyclopropanecarboxamide] | 29 | 31 | 41 | 21 | 28 | 15 | 12 | 43 |  | 11 | 6 | 14 |  | 18 | 50 | 101 to 103 | 
O=C(NC(Cc1ccccc1)C(=O)N1CCC(O)(c2ccc(Br)cc2)CC1)C1CCCCC1 (stereo not drawn) [Compound 50, N-[1-[[4-(4-bromophenyl)-4-hydroxy-1-piperidinyl]carbonyl]-2-phenylethyl]cyclohexanecarboxamide] | 37 | 34 | 47 | 34 | 29 | 29 | 26 | 29 |  | 26 | 18 | 20 |  | 23 | 50 | 200 to 202 | 
